{
  "source": "patent US6444703B1",
  "about": "“Cyclohexane carbocyclic ester derivative and cyclodextrin complex and composition for treatment of helicobacter pylori infections” (Teikoku Chemical Industries Co., Ltd., priority 1995, dated 2002)",
  "key": {"[1]": {"assay": "Solubility measurement (excess added to solvent, shaken one hour, supernatant assayed)", "type": "physicochemical", "settings": "thermodynamic from solid, 25° C.", "protocol": "Incidentally, the method for measuring the solubility in each example is as follows. Thus, an excessive amount of the present compound was added to a certain amount of solvent, the mixture was shaken for one hour, the supernatant liquid was removed and the amount of the present compound contained therein was measured wherefrom the solubility was calculated."}, "[2]": {"tested_on": "Helicobacter pylori ATCC 43504", "assay": "Eradication of Helicobacter pylori in stomach of infected Mongolian gerbils (viable cell counting)", "type": "in vivo", "settings": "oral 10 ml/kg three times on the 11th day, stomach viable cells 20 hours after final administration, individual animals 1-3, versus control 3.7 × 10^4 CFU/stomach, hydrochloride", "protocol": "Helicobacter pylori ATCC 43504 (100 μl) was inoculated into Brain heart infusion broth containing 10% calf serum and incubated at 37° C. for 24 hours in a microaerophilic atmosphere. The culture broth (0.5 ml containing about 3×10^8 CFU/ml) was administered orally to Mongolian gerbils (MON/Jms/Gba Slc; male of six weeks age) after fasting for 24 hours, then neither feed nor water was given for four hours and, after that, the animals were given with feed and water for ten days. Three infected animals as prepared in (1) were used per group. They were fasted from 20 hours before the 11th day (although water was made freely taken by them) and, during the fasted stage, 10 ml/kg each of the test drugs for administration prepared in Examples and Comparative Examples were orally given to them at 9:00, 13:00 and 17:00 o'clock on the 11th day. Feeding was started as from 21:00 o'clock and, after 20 hours from the final administration, stomach of the animals was removed and Helicobacter pylori living therein was subjected to a viable cell counting. The stomachs were cut open and the contents were removed (no washing conducted) and homogenized in 20 ml of 0.1M phosphate buffer (pH 7.2) to give a sample for viable cell counting. […] The growing colonies were counted after 6 days. […] Incidentally, the eradication rate was calculated according to the following calculating expression. […]"}},
  "note": "Values joined by “and” are separate entries in the source; they are usually repeats but may differ in a detail not shown here. Equal entries are not always repeated. Where two headings read alike, the source gives them in different places.",
  "data": [
    {"smiles": "Cc1ccc(COC(=O)c2ccc(-c3ccc(OC(=O)[C@H]4CC[C@H](CNC(=N)N)CC4)cc3)cc2)cc1.Cl", "note": "[Comp.Ex.1, 4-[4-(4-Methylbenzyloxycarbonyl)phenyl]phenyl trans-4-guanidinomethylcyclohexanecarboxylate hydrochloride]", "values": [
      {"measurement": "solubility at 1 h", "setting": "[1]; 0.05M phosphate buffer, aqueous buffer, pH 6.5, read-out: Solubility in 0.05M phosphate buffer (pH 6.5)", "value": "< 0.1", "unit": "µg/mL"},
      {"measurement": "solubility at 1 h", "setting": "[1]; 0.1M acetate buffer, aqueous buffer, pH 4.0, read-out: Solubility in 0.1M acetate buffer (pH 4.0)", "value": "< 0.1", "unit": "µg/mL"},
      {"measurement": "solubility at 1 h", "setting": "[1]; first fluid (The Japanese Pharmacopoeia), simulated gastric fluid, pH 1.2, read-out: Solubility in the first fluid (The Japanese Pharmacopoeia) (pH 1.2)", "value": "< 0.1", "unit": "µg/mL"},
      {"measurement": "solubility at 1 h", "setting": "[1]; water, read-out: Solubility in water", "value": 24, "unit": "µg/mL"},
      {"measurement": "Eradication Rate (%)", "setting": "[2]", "value": "95.7% and 62.2% and 0%"}
    ]}
  ]
}
